Common to all, as to assay type: functional
Experiment [1] is described as follows: The 50% cytotoxic concentration was calculated as the concentration of the drug that decreased the percentage of formazan produced in drug-treated,uninfected cells to 50% of that produced in drug free uninfected cells on serotype 14.
The target in experiment [2] is T1, Human rhinovirus A protease (Human rhinovirus sp.) (UniProt Q4U254).
T1 sequence (whole entry): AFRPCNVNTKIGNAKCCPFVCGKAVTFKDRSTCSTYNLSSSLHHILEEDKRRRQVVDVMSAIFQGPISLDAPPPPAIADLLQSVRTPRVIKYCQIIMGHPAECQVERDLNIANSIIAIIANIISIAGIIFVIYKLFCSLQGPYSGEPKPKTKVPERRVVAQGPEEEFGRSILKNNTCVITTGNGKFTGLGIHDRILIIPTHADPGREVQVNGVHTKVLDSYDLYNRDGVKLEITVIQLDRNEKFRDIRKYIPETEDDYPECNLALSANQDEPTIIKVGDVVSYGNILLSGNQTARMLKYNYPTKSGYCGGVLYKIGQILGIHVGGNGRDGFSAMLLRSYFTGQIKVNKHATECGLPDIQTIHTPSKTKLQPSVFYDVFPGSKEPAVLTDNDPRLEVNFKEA
In words: The EC90 was calculated as the concentration of drug that increased the percentage of formazan production in drug treated, virus infected cells to 50% of that produced by drug free uninfected cells on human rhinovirus-10.

The target of experiment [3] is T1, Human rhinovirus A protease (Human rhinovirus sp.). The experiment in a line: The EC90 was calculated as the concentration of drug that increased the percentage of formazan production in drug treated, virus infected cells to 50% of that produced by drug free uninfected cells on human rhinovirus-14.
The target is the same in experiment [4]. The experiment in a line: The EC90 was calculated as the concentration of drug that increased the percentage of formazan production in drug treated, virus infected cells to 50% of that produced by drug free uninfected cells on human rhinovirus-1A.
The target is the same in experiment [5]. The experiment in a line: The EC90 was calculated as the concentration of drug that increased the percentage of formazan production in drug treated, virus infected cells to 50% of that produced by drug free uninfected cells on human rhinovirus-2.

The structures appear in SMILES notation.

The CC50 is the concentration that lowers cell viability or growth by half. For the compound `CCOC(=O)/C=C/[C@H](CCC(N)=O)NC(=O)[C@@H](CC(=O)[C@@H](NC(=O)SC1CCCC1)C(C)(C)C)Cc1ccccc1`, the 50% cytotoxic concentration (CC50) in experiment [1] was more than 100000 nM.
The same measure, in the same setting: next, `CCOC(=O)/C=C/[C@H](CCC(N)=O)NC(=O)[C@@H](CC(=O)[C@H](Cc1ccccc1)NC(=O)SC1CCCC1)Cc1ccc(F)cc1`: more than 100000 nM.
On the same count and under the same terms, next, `CCOC(=O)/C=C/[C@H](CCC(N)=O)NC(=O)[C@@H](CC(=O)[C@H](Cc1ccccc1)NC(=O)SC1CCCC1)Cc1ccc(C)cc1`: more than 100000 nM.
Still for that read-out and setting: for `CCOC(=O)/C=C/[C@H](CCC(N)=O)NC(=O)[C@@H](CC(=O)[C@@H](NC(=O)SC1CCCC1)C(C)C)Cc1ccc(C)cc1` the value was more than 100000 nM.
In general, EC90 refers to the concentration needed for an effect of 90%. Consider `CCOC(=O)/C=C/[C@H](CCC(N)=O)NC(=O)[C@H](Cc1ccc(F)cc1)NC(=O)[C@@H](NC(=O)SC1CCCC1)C(C)C`, for which the 90% effect concentration (EC90) in experiment [2] is 2500 nM; in experiment [3] it was 1800 nM; in experiment [4], 2500 nM; in experiment [5], 5400 nM.
As to `CCOC(=O)/C=C/[C@H](CCC(N)=O)NC(=O)[C@@H](CC(=O)[C@@H](NC(=O)SC1CCCC1)C(C)C)Cc1ccccc1`, in experiment [1], the CC50 was more than 100000 nM.
Still for that read-out and setting: next, `CCOC(=O)/C=C/[C@H](CCC(N)=O)NC(=O)[C@@H](CC(=O)[C@@H](NC(=O)SCc1ccccc1)C(C)C)Cc1ccccc1`: more than 100000 nM; `CCOC(=O)/C=C/[C@H](CCC(N)=O)NC(=O)[C@@H](CC(=O)[C@H](CC(C)C)NC(=O)SCc1ccccc1)Cc1ccccc1`: more than 100000 nM.
On the same count and under the same terms, next, `CCOC(=O)/C=C/[C@H](CCC(N)=O)NC(=O)[C@@H](CC(=O)[C@H](CC(C)C)NC(=O)OCc1ccccc1)Cc1ccccc1`: more than 320000 nM; `CCOC(=O)/C=C/[C@H](CCC(N)=O)NC(=O)[C@@H](CC(=O)[C@H](CC(C)C)NC(=O)SC1CCCC1)Cc1ccccc1`: more than 100000 nM.
Same read-out and setting: for `CCOC(=O)/C=C/[C@H](CCC(N)=O)NC(=O)[C@@H](CC(=O)[C@@H](NC(=O)SC1CCCC1)C(C)C)Cc1ccc(C(F)(F)F)cc1` the value was more than 100000 nM; for `CCOC(=O)/C=C/[C@H](CCC(N)=O)NC(=O)[C@H](Cc1ccccc1)NC(=O)[C@H](CC(C)C)NC(=O)OCc1ccccc1`, more than 320000 nM.
On to `CCOC(=O)/C=C/[C@H](CCC(N)=O)NC(=O)[C@@H](CC(=O)[C@@H](NC(=O)SC1CCCC1)C(C)C)Cc1ccc(F)cc1`, for which the EC90 is 250 nM in experiment [2], 100 nM in experiment [3], 200 nM in experiment [4] and 250 nM in experiment [5]. Besides, the half-maximal cytotoxic concentration (CC50) in experiment [1] was more than 100000 nM.
Turning to `CCOC(=O)/C=C/[C@H](CCC(N)=O)NC(=O)[C@@H](CC(=O)[C@H](CC(C)C)NC(=O)SC1CCCC1)Cc1ccc(F)cc1`, the CC50 in experiment [1] is more than 100000 nM.
The same measure, in the same setting: for `CCOC(=O)/C=C/[C@H](CCC(N)=O)NC(=O)[C@@H](CC(=O)[C@H](CC(C)C)NC(=O)SC1CCCC1)Cc1ccc(C)cc1` the value was more than 100000 nM.
Consider `CCOC(=O)/C=C/[C@H](CCC(N)=O)NC(=O)[C@@H](CC(=O)[C@@H](NC(=O)c1cc(C)on1)C(C)C)Cc1ccc(F)cc1`, for which the EC90 is 790 nM in experiment [2] and 320 nM in experiment [3].

These data come from ChEMBL document CHEMBL1132118, “Structure-based design, synthesis, and biological evaluation of irreversible human rhinovirus 3C protease inhibitors. 3. Structure-activity studies of ketomethylene-containing peptidomimetics” (J Med Chem, 1999).
